From patent US20030119894A1, “Methods for treatment of cancer or neoplastic disease and for inhibiting growth of cancer cells and neoplastic cells” (Gemin X Biotechnologies Inc., priority 2001, published 2003) come the findings set out here.

The subject of data set [1] is B23 cells. The data set can be described thus: cells. Type of data set: cell-based, Human. The protocol:
(§1) Human anti-apoptotic Bcl-2 over-expressing epithelial cells (B23 cells) (Nguyen et al. (1994) J. Biol. Chem. 269 (24): 16521-24) were plated in 24-well plates at a density of about 80,000 cells per well and infected with 12S-adenovirus, which expresses the E1A oncogene (Nguyen et al. (1998) J. Biol. Chem. 273 (50): 33099-102). Normal human breast epithelial cells, MCF-7 breast cancer cells and MBA-MB231 breast cancer cells were plated in 24-well plates at a density of between 70,000-80,000 cells per well. After incubation at 37° C. for the indicated times in a 5% CO2 incubator, cells were harvested and cell death was monitored using a trypan blue assay as described in Ausubel et al. (1988) Current Protocols in Molecular Biology, Section 11.5.1 (Greene Publishing Associates and Intersciences, New York)).
Normally, intracellular expression of an oncogene in cells results in apoptotic cell death. However, if anti-apoptotic Bcl-2 is over-expressed in these cells, they are protected from apoptosis. Therefore, an anti-cancer compound's activity can be monitored by measuring cell death in B23 cells in the presence of the E1A oncogene.

For data set [2], the system named is E1A cells. The data set can be described thus: E1A-Bcl2 killing assay. Type of data set: cell-based. As to the method: as §1
IC50 values determined for these illustrative compounds in an E1A killing assay, using the materials and methods described above. These compounds have been described in Gerber et al. (1975), Critical Reviews in Microbiology, pp. 469-85.

For data set [3], the target named is Bcl-2 (Homo sapiens, UniProt P10415). The data set can be described thus: Anti-apoptotic:Pro-apoptotic binding assay, Bcl-2.
Chain of Bcl-2 (P10415 whole entry): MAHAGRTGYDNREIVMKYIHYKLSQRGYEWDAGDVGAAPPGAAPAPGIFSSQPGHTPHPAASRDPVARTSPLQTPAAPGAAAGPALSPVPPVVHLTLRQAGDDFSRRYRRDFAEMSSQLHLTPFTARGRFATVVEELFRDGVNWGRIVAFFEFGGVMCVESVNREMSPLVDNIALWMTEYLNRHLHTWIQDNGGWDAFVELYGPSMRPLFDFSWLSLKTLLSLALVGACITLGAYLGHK
In data set [4] the test system is MBA-MB231 breast cancer cells. The data set can be described thus: cells. It counts as cell-based. The conditions noted are these: 72 h, read-out: Cytotoxicity (% Dead Cells). The protocol:
as §1

Data set [5] relates to Normal human breast epithelial cells. Description: Trypan blue cell death assay in normal human breast epithelial cells. The conditions noted are these: 1 μM. Type of data set: cell-based. The protocol: as §1
Assay in data set [6]: as above
Type of data set: cell-based. The settings on record: human. As to the method:
as §1

For data set [7], the system named is Baby rat kidney cells. Description: Transformation of baby rat kidney cells transfected with E1A oncogene and Bcl-2 (colony count). Type of data set: cell-based. As to the method:
Baby rat kidney cells were transfected with RcRSV (Hartl et al. (1992) Cell Growth Differ. 3 (12): 909-18) expressing both E1A oncogene and anti-apoptotic Bcl-2 as described in (Lin et al. (1995) Mol. Cell. Biol. 15 (8): 4536-44). Transfected cells were then cultured (Lin et al. (1995) Mol. Cell. Biol. 15 (8): 4536-44) in the presence of varying concentrations of Butyl-meta-cycloheptylprodiginine for three weeks and the number of transformed cell colonies was counted.

Data set [8] deals with B23 cells. Type of data set: cell-based, Human. The conditions noted are these: B23 cells without E1A; data not shown.
The subject of data set [9] is MCF-7 breast cancer cells. Description: Trypan blue cell death assay in MCF-7 breast cancer cells. It counts as cell-based. The settings on record: Homo sapiens, MCF7, 72 h, read-out: Cytotoxicity (% Dead Cells). The protocol: as §1
The test system of data set [10] is normal baby rat kidney cells. The data set can be described thus: Susceptibility of normal baby rat kidney cells. It counts as cell-based. The settings on record: similar conditions; data not shown. The text has this: In the absence of anti-apoptotic Bcl-2, all baby rat kidney cells died within a few days (data not shown).
Data set [11] deals with T1, Bcl-w (Homo sapiens, UniProt Q92843).
T1 sequence (Q92843 1-193): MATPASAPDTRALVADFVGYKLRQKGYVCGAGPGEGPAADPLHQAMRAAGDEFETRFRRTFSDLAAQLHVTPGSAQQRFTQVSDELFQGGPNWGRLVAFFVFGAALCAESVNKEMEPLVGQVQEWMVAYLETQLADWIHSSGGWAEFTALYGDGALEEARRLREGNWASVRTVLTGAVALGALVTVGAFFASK
The data set can be described thus: Anti-apoptotic:Pro-apoptotic binding assay, Bcl-w.

For data set [12], the system named is Human oral epithelial carcinoma cells (KB cells). Description: Apoptosis reinstatement in Bcl-2 over-expressing KB cells (trypan blue). Type of data set: cell-based. As to the method:
Human oral epithelial carcinoma cells (KB cells) with and without stably expressed anti-apoptotic Bcl-2 were infected with 12S-adenovirus expressing the E1A oncogene, as described above in Example 6.1. Cell death was monitored 70 hours after infection using the trypan blue assay described above.

[13] abbreviates: Homo sapiens, 72 h, read-out: Cytotoxicity (% Dead Cells).

As to `CCC1CCCCCCCCc2ccc([nH]2)/C=C2\N=C(C=C2OC)c2ccc1[nH]2` (stereo not shown) [Ethylcyclononylprodiginine, ethylcyclononyl-prodiginine], in data set [1] (setting [13]), the cytotoxicity at 1 µM was determined as 15% and the cytotoxicity at 5 µM turned out to be 20%. Moreover, the inhibition at 5 µM in [2] (read-out: % inhibition at μM concentration, E1A-Bcl2 killing assay) was 20%. The inhibition at 510 µM in data set [3] (at 510 μM, read-out: % inhibition at μM concentration, Anti-apoptotic:Pro-apoptotic binding assay Bcl-2) came to 45%.
Broadly, the IC50 is the concentration at which inhibition is half-maximal. For `CCCCC1CCCCCCc2cc1c(/C=C1\N=C(c3ccc[nH]3)C=C1OC)[nH]2` (stereo not shown) [Butyl-meta-cycloheptylprodiginine, butyl-meta-cycloheptylprodiginine], the cytotoxicity at 0.25 µM worked out at 64% in [4]; 75% in data set [1] (Homo sapiens, B23 cells, 0.25 μM, 72 h, read-out: Cytotoxicity (% Dead Cells)); 70% in data set [9]. The cytotoxicity at 1 µM came to 100% in data set [4], 85% in [1] (setting [13]) and 100% in [9]. Also, the cytotoxicity at 2 µM in data set [4] came out at 100%; in data set [1] (setting [13]), 95%; in data set [9], 100%. Moreover, the “Concentration able to inhibit Bcl-2 in B23 cells and re-establish the killing effect of the E1A oncogene” value in [1] (B23 cells with E1A, concentrations as low as) turned out to be 0.25 µM. Moreover, the IC50 in data set [2] (read-out: IC50 (μM) E1A-Bcl2 killing assay) stood at 0.05 µM; in data set [3], 125 µM; in data set [11] it was 100 µM. The “Effect on normal human breast epithelial cells” value in data set [5] is given as “not affected”. Besides, in [6], the cytotoxicity at 72 h, 0.25 µM turned out to be 5%. The same compound came in with a cytotoxicity at 72 h, 1 µM in data set [6] of 5%. For the same compound, the cytotoxicity at 72 h, 2 µM in [6] turned out to be 15%. In addition, the “Apoptosis of transformed colonies” value in [7] (baby rat kidney cells transformed with Bcl-2 and E1A) was “promoted apoptosis of the transformed colonies”. Further, the “Number of transformed cell colonies (ability of Bcl-2 to transform cells in the presence of E1A)” value in data set [7] (increasing concentrations, three weeks) is on record as “significantly lowered the ability of anti-apoptotic Bcl-2 to transform cells”. Moreover, the “Effect on B23 cell death in the absence of E1A” value in data set [8] was “no significant effect”. The “Susceptibility of normal baby rat kidney cells” value in data set [10] is reported as “not susceptible”. Further, the “Apoptosis in uninfected KB cells” value in data set [12] (uninfected cells, same concentrations) is given as “no effect on apoptosis”. Besides, the “Apoptosis in E1A-infected Bcl-2 over-expressing KB cells” value in data set [12] (various concentrations, 70 hours after infection) is listed as “reinstate apoptosis”.
On to Undecylprodiginine, for which the “Cytotoxicity (% Dead Cells)” value was 18% in data set [1] (B23 cells, 1.0 μM, 72 h) and 25% in data set [1] (B23 cells, 5.0 μM, 72 h). For the same compound, in [2] (at 5 μM), the “% inhibition at μM concentration, E1A-Bcl2 killing assay” value is reported as 25%; 5 μM. Moreover, the “% inhibition at μM concentration, Anti-apoptotic:Pro-apoptotic binding assay Bcl-2” value in data set [3] (at 500 μM) is on record as 40%; 500 μM.
